# In patent US10072001B2, “Tank-binding kinase inhibitor compounds” (Gilead Sciences, Inc., priority 2014, dated 2018):
# Assays:
# TBK1 = TBK1 (Homo sapiens (Human), UniProt Q9UHD2); experiment: TR-FRET kinase assay, TBK1; settings: read-out: TBK1-IC50; full length recombinant TBK1 2.5 nM, 2x Km ATP, 1 μM peptide, 240 min at 25° C.; geometric mean of minimum four determinations
# Chain of TBK1 (Q9UHD2 whole entry): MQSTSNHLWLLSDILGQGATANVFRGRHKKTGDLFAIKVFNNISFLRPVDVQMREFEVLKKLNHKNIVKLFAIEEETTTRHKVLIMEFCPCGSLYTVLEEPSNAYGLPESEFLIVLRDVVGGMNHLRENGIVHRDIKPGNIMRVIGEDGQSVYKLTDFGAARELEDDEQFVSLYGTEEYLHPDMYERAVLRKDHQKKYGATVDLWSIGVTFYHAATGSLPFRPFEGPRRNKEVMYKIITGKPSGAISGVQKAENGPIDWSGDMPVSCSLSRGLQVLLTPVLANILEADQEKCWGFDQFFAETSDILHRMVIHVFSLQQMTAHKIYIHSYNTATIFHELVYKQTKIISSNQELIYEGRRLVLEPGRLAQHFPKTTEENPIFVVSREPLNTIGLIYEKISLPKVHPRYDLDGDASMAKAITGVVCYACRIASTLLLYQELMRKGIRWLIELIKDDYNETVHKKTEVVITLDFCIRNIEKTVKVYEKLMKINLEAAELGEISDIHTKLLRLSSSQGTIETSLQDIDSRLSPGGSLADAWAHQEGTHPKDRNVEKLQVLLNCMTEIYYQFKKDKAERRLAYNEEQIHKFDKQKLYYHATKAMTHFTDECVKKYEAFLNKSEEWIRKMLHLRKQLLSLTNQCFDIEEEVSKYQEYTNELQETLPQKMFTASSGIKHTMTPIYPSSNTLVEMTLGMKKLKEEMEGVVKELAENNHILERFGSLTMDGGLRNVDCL
# IKKε = IKKε (Homo sapiens (Human), UniProt Q14164); experiment: TR-FRET kinase assay, IKKε; assay type: biochemical; settings: full length recombinant IKKε 0.3 nM, 2x Km ATP, 1 μM peptide, 240 min at 25° C.; geometric mean of minimum four determinations
# Chain of IKKε (Q14164 whole entry): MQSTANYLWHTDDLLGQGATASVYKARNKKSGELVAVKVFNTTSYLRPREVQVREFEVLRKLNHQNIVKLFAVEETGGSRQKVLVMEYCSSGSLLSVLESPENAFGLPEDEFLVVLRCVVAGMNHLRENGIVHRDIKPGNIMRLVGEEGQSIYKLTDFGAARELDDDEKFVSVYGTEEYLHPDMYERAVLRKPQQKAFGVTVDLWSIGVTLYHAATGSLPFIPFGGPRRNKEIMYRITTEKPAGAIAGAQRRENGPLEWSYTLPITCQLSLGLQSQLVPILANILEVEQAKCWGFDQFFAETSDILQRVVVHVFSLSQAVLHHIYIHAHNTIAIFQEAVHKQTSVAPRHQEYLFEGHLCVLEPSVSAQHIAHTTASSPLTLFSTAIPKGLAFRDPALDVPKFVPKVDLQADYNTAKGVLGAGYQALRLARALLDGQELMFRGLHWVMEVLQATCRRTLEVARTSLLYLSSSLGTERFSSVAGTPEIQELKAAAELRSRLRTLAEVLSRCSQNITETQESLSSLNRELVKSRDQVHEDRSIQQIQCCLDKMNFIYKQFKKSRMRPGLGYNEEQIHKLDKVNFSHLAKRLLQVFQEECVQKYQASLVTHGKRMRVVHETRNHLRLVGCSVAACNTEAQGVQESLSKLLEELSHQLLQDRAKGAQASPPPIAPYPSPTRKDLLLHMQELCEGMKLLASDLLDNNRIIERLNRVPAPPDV
# Text: Biological Assay for TBK1 and IKKs:
IC50 (TBK1) [nM],IC50 (IKKε) [nM],SMILES
2.02,15.8,"N#Cc1cc(-c2ccnc3[nH]c(-c4ccc(N5CCN(C(=O)CO)CC5)cc4)cc23)ccc1OC1CCOCC1 [Example 56, 5-(2-(4-(4-(2-hydroxyacetyl)piperazin-1-yl)phenyl)-1H-pyrrolo[2,3-b]pyridin-4-yl)-2-((tetrahydro-2H-pyran-4-yl)oxy)benzonitrile]"
6.06,> 1000,"N#Cc1cc(-c2ccnc3[nH]c(-c4ccc(N5CCOCC5)cc4)cc23)ccc1F [Example 58, 2-fluoro-5-(2-(4-morpholinophenyl)-1H-pyrrolo[2,3-b]pyridin-4-yl)benzonitrile]"
79.4,55.4,"N#Cc1cc(-c2ccnc3[nH]c(C(=O)NC4CC4)cc23)ccc1OC1CCOCC1 [Example 59, 4-(3-cyano-4-((tetrahydro-2H-pyran-4-yl)oxy)phenyl)-N-cyclopropyl-1H-pyrrolo[2,3-b]pyridine-2-carboxamide]"
63.8,44.5,"CC(C)NC(=O)c1cc2c(-c3ccc(OC4CCOCC4)c(C#N)c3)ccnc2[nH]1 [Example 60, 4-(3-cyano-4-((tetrahydro-2H-pyran-4-yl)oxy)phenyl)-N-isopropyl-1H-pyrrolo[2,3-b]pyridine-2-carboxamide]"
312,112,"N#Cc1cc(-c2ccnc3[nH]c(C(=O)Nc4ccccc4)cc23)ccc1OC1CCOCC1 [Example 61, 4-(3-cyano-4-((tetrahydro-2H-pyran-4-yl)oxy)phenyl)-N-phenyl-1H-pyrrolo[2,3-b]pyridine-2-carboxamide]"
24.1,25.3,"N#Cc1cc(-c2cc3c(-c4ccc(OC5CCOCC5)c(C#N)c4)ccnc3[nH]2)ccc1OC1CCOCC1 [Example 62, 5,5′-(1H-pyrrolo[2,3-b]pyridine-2,4-diyl)bis(2-((tetrahydro-2H-pyran-4-yl)oxy)benzonitrile)]"
10.6,22.5,"CC(C)(O)c1cccc(-c2cc3c(-c4ccc(OC5CCOCC5)c(C#N)c4)ccnc3[nH]2)c1 [Example 68, 5-(2-(3-(2-hydroxypropan-2-yl)phenyl)-1H-pyrrolo[2,3-b]pyridin-4-yl)-2-((tetrahydro-2H-pyran-4-yl)oxy)benzonitrile]"
79.7,> 1000,"Cc1ccc(-c2ccnc3[nH]c(-c4ccc(N5CCOCC5)cc4)cc23)cc1C#N [Example 69, 2-methyl-5-(2-(4-morpholinophenyl)-1H-pyrrolo[2,3-b]pyridin-4-yl)benzonitrile]"
10.5,132,"N#Cc1cc(-c2ccnc3[nH]c(-c4ccc(N5CCOCC5)cc4)cc23)ccc1CN1CCOCC1 [Example 70, 2-(morpholinomethyl)-5-(2-(4-morpholinophenyl)-1H-pyrrolo[2,3-b]pyridin-4-yl)benzonitrile]"
59.3,358,"CC(C)Oc1ccc(-c2ccnc3[nH]c(-c4ccc(N5CCOCC5)cc4)cc23)cc1C#N [Example 71, 2-isopropoxy-5-(2-(4-morpholinophenyl)-1H-pyrrolo[2,3-b]pyridin-4-yl)benzonitrile]"
9.62,> 1000,"N#Cc1cc(-c2ccnc3[nH]c(-c4ccc5c(c4)C(=O)NC5)cc23)ccc1OC1CCOCC1 [Example 74, 5-(2-(3-oxoisoindolin-5-yl)-1H-pyrrolo[2,3-b]pyridin-4-yl)-2-((tetrahydro-2H-pyran-4-yl)oxy)benzonitrile]"
6.28,10.5,"N#Cc1cc(-c2ccnc3[nH]c(-c4ccc5c(c4)OCC(=O)N5)cc23)ccc1OC1CCOCC1 [Example 75, 5-(2-(3-oxo-3,4-dihydro-2H-benzo[b][1,4]oxazin-7-yl)-1H-pyrrolo[2,3-b]pyridin-4-yl)-2-((tetrahydro-2H-pyran-4-yl)oxy)benzonitrile]"
5.76,> 1000,"CC1(C)C(=O)Nc2cc(-c3cc4c(-c5ccc(OC6CCOCC6)c(C#N)c5)ccnc4[nH]3)ccc21 [Example 76, 5-(2-(3,3-dimethyl-2-oxoindolin-6-yl)-1H-pyrrolo[2,3-b]pyridin-4-yl)-2-((tetrahydro-2H-pyran-4-yl)oxy)benzonitrile]"
10.9,38,"N#Cc1cc(-c2ccnc3[nH]c(-c4ccc(N5CCOCC5)c(F)c4)cc23)ccc1OC1CCOCC1 [Example 77, 5-(2-(3-fluoro-4-morpholinophenyl)-1H-pyrrolo[2,3-b]pyridin-4-yl)-2-((tetrahydro-2H-pyran-4-yl)oxy)benzonitrile]"
25.5,40.1,"N#Cc1cc(-c2ccnc3[nH]c(-c4cccc(N5CCOCC5)c4)cc23)ccc1OC1CCOCC1 [Example 78, 5-(2-(3-morpholinophenyl)-1H-pyrrolo[2,3-b]pyridin-4-yl)-2-((tetrahydro-2H-pyran-4-yl)oxy)benzonitrile]"
28.2,> 1000,"N#Cc1cccc(-c2ccnc3[nH]c(-c4ccc(N5CCOCC5)cc4)cc23)c1 [Example 79, 3-(2-(4-morpholinophenyl)-1H-pyrrolo[2,3-b]pyridin-4-yl)benzonitrile]"
16.8,> 1000,"N#Cc1cc(-c2ccnc3[nH]c(-c4ccc(N5CCOCC5)cc4)cc23)ccc1OCC1CC1 [Example 80, 2-(cyclopropylmethoxy)-5-(2-(4-morpholinophenyl)-1H-pyrrolo[2,3-b]pyridin-4-yl)benzonitrile]"
4.1,9.9,"N#Cc1cc(-c2ccnc3[nH]c(-c4ccc(N5CCOCC5)nc4)cc23)ccc1OC1CCOCC1 [Example 81, 5-(2-(6-morpholinopyridin-3-yl)-1H-pyrrolo[2,3-b]pyridin-4-yl)-2-((tetrahydro-2H-pyran-4-yl)oxy)benzonitrile]"
0.9,0.29,"CN1CCN(c2ccc(-c3cc4c(-c5ccc(OC6CCOCC6)c(C#N)c5)ccnc4[nH]3)cc2)CC1 [Example 82, 5-(2-(4-(4-methylpiperazin-1-yl)phenyl)-1H-pyrrolo[2,3-b]pyridin-4-yl)-2-((tetrahydro-2H-pyran-4-yl)oxy)benzonitrile]"
> 1000,19.8,"N#Cc1cc(-c2ccnc3[nH]c(-c4ccccc4)cc23)ccc1OC1CCOCC1 [Example 83, 5-(2-phenyl-1H-pyrrolo[2,3-b]pyridin-4-yl)-2-((tetrahydro-2H-pyran-4-yl)oxy)benzonitrile]"
3.68,4.71,"Cn1cc(-c2cc3c(-c4ccc(OC5CCOCC5)c(C#N)c4)ccnc3[nH]2)cn1 [Example 84, 5-(2-(1-methyl-1H-pyrazol-4-yl)-1H-pyrrolo[2,3-b]pyridin-4-yl)-2-((tetrahydro-2H-pyran-4-yl)oxy)benzonitrile]"
1.31,3.5,"N#Cc1cc(-c2ccnc3[nH]c(-c4ccc(N5CCN(C6COC6)CC5)cc4)cc23)ccc1OC1CCOCC1 [Example 85, 5-(2-(4-(4-(oxetan-3-yl)piperazin-1-yl)phenyl)-1H-pyrrolo[2,3-b]pyridin-4-yl)-2-((tetrahydro-2H-pyran-4-yl)oxy)benzonitrile]"
3.89,13.8,"N#Cc1nc(-c2ccnc3[nH]c(-c4ccc(N5CCOCC5)cc4)cc23)ccc1OC1CCOCC1 [Example 86, 6-(2-(4-morpholinophenyl)-1H-pyrrolo[2,3-b]pyridin-4-yl)-3-((tetrahydro-2H-pyran-4-yl)oxy)picolinonitrile]"
